Results published in patent US11851391B2, “Antifungal compounds and methods of forming the same” (University of Kentucky Research Foundation, priority 2018, dated 2023).
In brackets after ≈: the same amount, converted by molar mass. Entries after “also recorded” stand apart in the source; their conditions may differ. Read-outs that look alike come from different tables or passages of the source.

Key:
[1] = system: Aspergillus flavus ATCC MYA-3631 (strain K); experiment: MIC determination against filamentous fungi (CLSI M38-A2); assay type: cell-based; conditions: Aspergillus flavus, 48 h, MIC-0, 48 h at 35° C., read-out: MIC
Procedure, shortened: (§1)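 MIC-0, meaning no visible growth relative to growth control, was scored after 48 h at 35° C, in triplicate. Hemocytometer-counted spores from potato dextrose agar were inoculated at 5×10^5 CFU/mL final. The medium was MOPS-buffered (0.165 M) RPMI 1640 at pH 7.0, following CLSI M38-A2.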

[2] = system: Aspergillus terreus ATCC MYA-3633 (strain M); experiment: as above; assay type: cell-based; conditions: Aspergillus terreus, 48 h, MIC-0, 48 h at 35° C., read-out: MIC
Procedure, shortened: as §1

[3] = system: Aspergillus nidulans ATCC 38163 (strain L); experiment: as above; assay type: cell-based; conditions: Aspergillus nidulans, ATCC38163, 48 h, MIC-0, 48 h at 35° C., read-out: MIC
Procedure, shortened: as §1

[4] = system: various yeast strains and filamentous fungi (strains A-M); experiment: Antifungal activity over the whole panel (summary of MIC data); assay type: cell-based, Candida and Aspergillus strains
Description: The activity of N,N′-diaryl-bishydrazones 7-22 was tested against a panel of seven strains of C. albicans: ATCC 10231(R) (A), ATCC 64124(R) (B), ATCC MYA-2876(S) (C), ATCC 90819(R) (D), ATCC MYA-2310(S) (E), ATCC MYA-1237(R) (F), and ATCC MYA-1003(R) (G). The activity of these bishydrazones 7-22 was also explored against a panel of three non-albicans Candida strains: C. glabrata ATCC 2001 (H), C. krusei ATCC 6258 (I), and C. parapsilosis ATCC 22019 (J). Finally, the activity of these bishydrazones 7-22 was explored against three Aspergillus strains: A. flavus ATCC MYA-3631 (K), A. nidulans ATCC 38163 (L), and A. terreus ATCC MYA-3633 (M).
The MIC values of compounds 7a-24c against yeast cells (strains A-J) were determined in 96-well plates as described in the CLSI document M27-A3 with minor modifications. A single colony of freshly prepared yeast cells was used to inoculate 5 mL of yeast extract peptone dextrose (YPD) broth prior to incubation overnight with shaking at 200 rpm at 35° C. From the actively growing yeast culture, 100 μL were then transferred to 900 μL of sterile ddH2O and re-adjusted to achieve OD600 of 0.12 (˜1×10^6 CFU/mL). The cell suspension was further diluted to achieve 2-4×10^3 CFU/mL in RPMI 1640 medium. […] The final concentration of DMSO was ensured to be <1.25% in all experiments. The MIC values for compounds 7a-24c and CAS were defined as the minimum drug concentration that yielded complete inhibition (also known as MIC-0).
Similarly, the MIC values of compounds 7a-24c, as well as that of the two control drugs against filamentous fungi (strains K-M) were determined as previously described in CLSI document M38-A2. Spores were harvested from sporulating cultures growing on potato dextrose agar (PDA) by filtration through sterile glass wool and enumerated by using a hemocytometer to obtain the desired inoculum size. […] Spore suspensions were added to the wells to afford a final concentration of 5×10^5 CFU/mL. The plates were incubated at 35° C. for 48 h. The MIC values of compounds 7a-24c and CAS against filamentous fungi were based on the complete inhibition of growth when compared to the growth control (MIC-0). […] Each test was performed in triplicate.

[5] = system: C. albicans ATCC MYA-2876(S) (strain C); experiment: MIC determination, in vitro antifungal assay (CLSI M27-A3); assay type: cell-based, Candida albicans; conditions: Candida albicans, 48 h, MIC-0, 48 h at 35° C., read-out: MIC
Procedure, shortened: (§2)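 Yeast inoculum (2-4×10^3 CFU/mL, from OD600 0.12 suspension of overnight YPD culture) tested in MOPS-buffered (0.165 M) RPMI 1640, pH 7.0, at 35 °C. Method follows CLSI M27-A3 broth microdilution, with DMSO kept below 1.25% final.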

[6] = system: C. albicans ATCC MYA-1003(R) (strain G); experiment: as above; assay type: cell-based, Candida albicans; conditions: Candida albicans, 48 h, MIC-0, 48 h at 35° C., read-out: MIC
Procedure, shortened: as §2

[7] = system: Candida glabrata ATCC 2001 (strain H); experiment: as above; assay type: cell-based; conditions: MIC-0, 48 h at 35° C.
Procedure, shortened: as §2

[8] = system: Candida krusei ATCC 6258 (strain I); experiment: as above; assay type: cell-based; conditions: Pichia kudriavzevii, ATCC6258, 48 h, MIC-0, 48 h at 35° C., read-out: MIC
Procedure, shortened: as §2

[9] = system: C. albicans ATCC 90819(R) (strain D); experiment: as above; assay type: cell-based, Candida albicans; conditions: Candida albicans, ATCC90819, 48 h, MIC-0, 48 h at 35° C., read-out: MIC
Procedure, shortened: (§3)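 Complete-inhibition MIC (MIC-0) endpoint. Yeast inoculum of 2-4×10^3 CFU/mL in pH 7.0 MOPS-buffered RPMI 1640, incubated at 35° C following CLSI M27-A3 with modifications; final DMSO below 1.25%.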

[10] = system: C. albicans ATCC MYA-2310(S) (strain E); experiment: as above; assay type: cell-based, Candida albicans; conditions: Candida albicans, read-out: MIC
Procedure, shortened: as §3

[11] = system: C. albicans ATCC MYA-1237(R) (strain F); experiment: as above; assay type: cell-based, Candida albicans; conditions: Candida albicans, read-out: MIC
Procedure, shortened: as §3

[12] = system: C. albicans ATCC 64124(R) (strain B); experiment: as above; assay type: cell-based, Candida albicans; conditions: Candida albicans, read-out: MIC
Procedure, shortened: as §3

[13] = system: various bacterial strains, including Listeria monocytogenes, methicillin-resistant Staphylococcus aureus, and vancomycin-resistant enterococci; experiment: Antibacterial activity; assay type: cell-based
Source text: The activity of N,N′-diaryl-bishydrazones 7-22 was explored against various bacterial strains, including Listeria monocytogenes, methicillin-resistant Staphylococcus aureus, and vancomycin-resistant enterococci.

[14] = system: Candida parapsilosis ATCC 22019 (strain J); experiment: MIC determination, in vitro antifungal assay (CLSI M27-A3); assay type: cell-based; conditions: Lodderomyces parapsilosis, read-out: MIC
Procedure, shortened: as §3

[15] = system: Candida albicans ATCC 10231(R) (strain A); experiment: as above; assay type: cell-based; conditions: Candida albicans, ATCC10231, 48 h, MIC-0 (no visible growth), 48 h at 35° C., read-out: MIC
Procedure, shortened: as §3

[16] = system: C. albicans ATCC 90819(R) (strain D); experiment: as above; assay type: cell-based; conditions: Candida albicans, ATCC90819, strain D; MIC-2 (50% growth inhibition), reported for VOR
[17] = system: murine red blood cells (mRBCs); conditions: mouse, 60 min
Description: Thus, the hemolytic activity for these bishydrazones was investigated against murine red blood cells (mRBCs).
Murine red blood cells (mRBCs) were prepared by suspending 1 mL of murine blood in 3 mL of PBS prior to centrifugation at 1,000 rpm for 5 min. The mRBCs were washed four times in PBS and resuspended in the same buffer to a final concentration of 10^7 mRBC/mL. […] The tubes were incubated at 37° C. for 60 min. […] Eppendorf tubes containing 200 μL of ddH2O and 2 μL of 1% v/v Triton™ X-100 served as negative (blank) and positive controls, respectively. The percentage of hemolysis was calculated using the following equation: % hemolysis=[(absorbance of sample)−(absorbance of blank)]×100/(absorbance of positive control).

[18] = MIC-2 (50% growth inhibition), reported for VOR

`CC(C)(C)N/N=C/c1ccc(-c2ccc(/C=N/NC(C)(C)C)cc2)cc1` [Compound 23b] was tested. Which MIC [1] did it give?
The MIC was over 31.3 µg/mL.

And the MIC [2]?
The MIC was over 31.3 µg/mL.

And the MIC [3]?
Its MIC is 31.3 µg/mL (≈ 89.3 µM).

And the MIC ([4]; against all fungal strains tested, with named exceptions, read-out: antifungal activity class based on MIC values)?
The MIC was at least 31.3 µg/mL.

And the “antifungal activity (in words)” value ([4]; over the fungal strains tested, based on MIC data of Table 1)?
The value was “inactive”.

What about the MIC [5] of the same compound?
The MIC was over 31.3 µg/mL.

What about the MIC [6] of the same compound?
Its MIC is over 31.3 µg/mL.

And the MIC [7]?
The MIC was 15.6 µg/mL (≈ 44.5 µM).

What about the MIC ([7]; Nakaseomyces glabratus, ATCC2001, 48 h, read-out: MIC) of the same compound?
The MIC was 15.6 µg/mL (≈ 44.5 µM).

And the MIC [8]?
Its MIC is 31.3 µg/mL (≈ 89.3 µM).

What about the MIC [9] of the same compound?
Its MIC is over 31.3 µg/mL.

What about the MIC ([10]; 48 h, MIC-0, 48 h at 35° C.) of the same compound?
The MIC was 31.3 µg/mL (≈ 89.3 µM).

What about the MIC ([11]; 48 h, MIC-0, 48 h at 35° C.) of the same compound?
Its MIC is 31.3 µg/mL (≈ 89.3 µM).

What about the MIC ([12]; ATCC64124, 48 h, strain B, MIC-0, 48 h at 35° C.) of the same compound?
Its MIC is 31.3 µg/mL (≈ 89.3 µM).

And the “antibacterial activity (in words)” value [13]?
Its value is “neither the N,N′-diaryl-bishydrazones 7-22 nor the N,N′-di-tert-butyl-bishydrazone 23b displayed antibacterial activity; also recorded: Neither the N,N′-diaryl-bishydrazones 7-22 or the N,N′-dialkyl-bishydrazone 23b displayed antibacterial activity”.

What about the MIC ([14]; ATCC22019, 48 h, strain J, MIC-0, 48 h at 35° C.) of the same compound?
The MIC was over 31.3 µg/mL.

What about the MIC [15] of the same compound?
Its MIC is 31.3 µg/mL (≈ 89.3 µM).

`C[C@@H](c1ncncc1F)[C@](O)(Cn1cncn1)c1ccc(F)cc1F` [VOR, voriconazole, reference compound] was tested. Which MIC [1] did it give?
Its MIC is over 31.3 µg/mL.

And the MIC [2]?
The MIC was over 31.3 µg/mL.

And the MIC [3]?
Its MIC is over 31.3 µg/mL.

And the MIC [16]?
Its MIC is 0.12 µg/mL (≈ 0.344 µM).

What about the MIC [10, 18] of the same compound?
The MIC was 0.12 µg/mL (≈ 0.344 µM).

What about the MIC [11, 18] of the same compound?
The MIC was 0.24 µg/mL (≈ 0.687 µM).

What about the MIC ([12]; ATCC64124, strain B, MIC-2 (50% growth inhibition), reported for VOR) of the same compound?
The MIC was 0.24 µg/mL (≈ 0.687 µM).

And the “Percentage of hemolysis (±SDEV)” value ([17]; 0.975 μg/mL)?
Its value is 10.3 ± 2.1%.

What about the “Percentage of hemolysis (±SDEV)” value ([17]; 1.95 μg/mL) of the same compound?
Its value is 6.3 ± 1.9%.

What about the “Percentage of hemolysis (±SDEV)” value ([17]; 3.9 μg/mL) of the same compound?
Its value is 7.5 ± 0.5%.

What about the “Percentage of hemolysis (±SDEV)” value ([17]; 7.8 μg/mL) of the same compound?
The value was 11.4 ± 10.9%.

What about the “Percentage of hemolysis (±SDEV)” value ([17]; 15.6 μg/mL) of the same compound?
The value was 2.8 ± 1.3%.

And the MIC ([14]; ATCC22019, strain J, MIC-2 (50% growth inhibition), reported for VOR)?
The MIC was 1.95 µg/mL (≈ 5.58 µM).

What about the MIC [15] of the same compound?
The MIC was 0.975 µg/mL (≈ 2.79 µM).
